Assay results: PMC9963438, “Emerging Effects of Resveratrol Derivatives in Cells Involved in Oral Wound Healing: A Preliminary Study” (International Journal of Molecular Sciences, 2023)

Tests used:
eNOS mRNA in HUVECs = test: RT-qPCR of eNOS in HUVECs; assay type: cell-based, human
Description: Total RNA was isolated using Trifast reagent (EuroClone) according to the manufacturer instructions from 3 × 10^5 cells/well treated with increasing concentrations of 1d and 1h for 48 h and 72 h. Complementary DNA (cDNA) was obtained using GoTaq® 2 Step RT-qPCR Kit (Promega, Madison, WI, USA) in accordance with the manufacturer’s instructions. RT-qPCR was carried out using SYBR Green (Promega) on the Quant Studio 7 Pro Real-Time PCR System (ThermoFisher, Waltham, MA, USA). The results were normalized to glyceraldehyde 3-phoshate dehydrogenase (GAPDH) for HUVECs and HGFs and to β-actin (βACT) for HOBs using the 2^−ΔΔCt method.

[1] = system: human gingival fibroblasts (HGFs); test: MTT cytocompatibility screening on HGFs, 24 h; assay type: cell-based; conditions: for HGFs metabolic activity / cell viability (MTT): 10 µM, vs control (DMSO) and RSV; for HGFs cell viability (MTT): vs control and RSV
HOBs = test: Alizarin red staining and calcium deposition (CPC) in HOBs; assay type: cell-based, human; conditions: 5 µM, 14 days
Description: To evaluate mineralization qualitatively, Alizarin red staining was performed. 5 × 10^4/well HOBs were seeded and treated with 1d and 1h. After 14 days of culture, HOBs were rinsed three times with PBS and fixed with a glutaraldehyde solution (2.5%) for 2 h. An Alizarin staining solution (Sigma-Aldrich) was then added for 1h at room temperature and the excess dye was removed using deionized water. The presence of calcium deposition was qualitatively evaluated by observing the intensity of the red color. Images were taken by a stereomicroscope connected with a camera at a magnification of 12× (Leica, Wetzlar, Germany). Furthermore, to quantify calcium deposition, Cetylpyridinium Chloride (CPC) was used. Upon a washing with deionized water, cells were treated with 1 mL of 10% CPC solution (Sigma-Aldrich) for 1 h to chelate calcium ions. After incubation, the absorbance was read at 540 nm by a microplate reader (Synergy H1 Hybrid BioTek Instruments) and normalized with the cell number.

[2] = system: Alkaline phosphatase (ALP) activity in HOBs; test: ALP activity assay in HOBs; assay type: cell-based, human; conditions: 5 µM, 7 days, compared to CTRL and RSV; not statistically significant
Description: Alkaline phosphatase (ALP) activity was evaluated by ALP assay kit colorimetric AB83369 (Abcam Inc., Cambridge, UK). HOBs were seeded at a density of 5 × 10^4 cells/well and treated with 1d and 1h. After 7 days of culture, cell lysate was obtained, and ALP levels were measured according to the manufacturer instructions. The absorbance was measured at 450 nm by a microplate reader (Synergy H1 Hybrid BioTek Instruments, Winooski, VT, USA).

[3] = LogP determination (n-octanol/phosphate buffer pH 7.4); assay type: physicochemical; conditions: n-octanol/aqueous phosphate buffer, pH 7.4, n-octanol / phosphate buffer pH 7.4; mean of three experiments (SD)
Description: Both n-octanol and aqueous phosphate buffer (pH 7.4) solutions were saturated of each other by shaking. A total of 1 mL of n-octanol was added to an equal volume of an aqueous phosphate buffer (pH 7.4). A total of 5 mg of each compound was added and mixed by repeated inversion up to 200 times for 5 min and then allowed to stand for 30 min for the full separation of the two phases. Next, the respective phases were filtered and analyzed by HPLC [50] and the logarithm of the ratio of the concentrations of the unionized solute in the solvents (LogP) were determined.

[4] = Kinetics in human plasma (enzymatic hydrolysis); assay type: in vitro ADME; conditions: 37 °C; for Enzymatic hydrolysis t ½ / Enzymatic hydrolysis Kobs: Human plasma; for Enzymatic hydrolysis Kobs: mean of three experiments (SD); for half-life at 40 µg/mL: human, human plasma (80%) diluted with phosphate buffer, pH 7.4, Human plasma, read-out: Enzymatic hydrolysis t ½
Description: Human plasma was obtained from 3H Biomedical (Uppsala, Sweden, Europe). Plasma fractions (2 mL) were diluted with […] of a 0.02 M phosphate buffer (PBS, pH 7.4) to obtain a final volume of 2.5 mL (80% of plasma). A total of 100 µL of a stock solution, prepared to dissolve 1 mg of each compound in 1 mL of ACN, was added. Studies were performed at 37 ± 0.5 °C using a shaking bath. Aliquots (100 µL) were taken at established time points and treated with 400 µL of 0.01 M HCl in methanol. After centrifugation for 15 min at 6000× g, the supernatant was filtered and analyzed by HPLC [51].

CCS(=O)(=O)Nc1ccc(/C=C/c2ccccc2)cc1 [1h, N-{4-[(E)-2-Phenylvinyl]phenyl}ethanesulfonamide]
eNOS mRNA expression (eNOS mRNA in HUVECs; 5 µM, 48 h, vs CTRL and RSV): increased eNOS expression at 5 µM | eNOS mRNA expression (eNOS mRNA in HUVECs; 5, 10, 20 µM, 72 h): slightly promoted | HGFs metabolic activity / cell viability (MTT) [1]: statistically augmented the cell viability | HGFs cell viability (MTT) ([1]; 20 µM): slight increase in HGF viability | HGFs cell viability (MTT) ([1]; 50 µM): no statistically significant differences | matrix mineralization by ARS (qualitative) (HOBs): stimulated the formation of mineralized nodules | ALP activity in HOBs [2]: same ALP levels observed in the control cells and osteoblasts treated with RSV | logP [3]: < 3 | Enzymatic hydrolysis t ½ [4]: 51.7 h | Enzymatic hydrolysis Kobs [4]: 0.013 (±0.003) h^−1 | half-life at 40 µg/mL [4]: > 2940 min

Cc1ccc(S(=O)(=O)Nc2ccc(/C=C/c3ccccc3)cc2)cc1 [1d, 4-Methyl-N-{4-[(E)-2-phenylvinyl]phenyl}benzenesulfonamide]
eNOS mRNA expression (eNOS mRNA in HUVECs; 5 µM, 48 h, vs CTRL and RSV): increased after 48 h exposure to all 1d concentrations with statistical significance just for 5 µM | eNOS mRNA expression (eNOS mRNA in HUVECs; 5, 10, 20 µM, 72 h): slightly promoted the enhancement of eNOS expression | eNOS mRNA expression (eNOS mRNA in HUVECs; 10 and 20 µM, 48 h, not statistically significant): increased | HGFs metabolic activity / cell viability (MTT) [1]: statistically augmented the cell viability | HGFs cell viability (MTT) ([1]; 20 µM): statistically significant increase in HGF viability | HGFs cell viability (MTT) ([1]; 50 µM): positively and statistically increases cell viability | matrix mineralization by ARS (qualitative) (HOBs): higher mineralization potential | calcium deposition (quantitative measurement with CPC) (HOBs; vs control, RSV and 1h): significantly stimulated the calcium deposition | ALP activity in HOBs [2]: enhanced | logP [3]: < 3 | Enzymatic hydrolysis t ½ [4]: 49.5 h | Enzymatic hydrolysis Kobs [4]: 0.014 (±0.005) h^−1 | half-life at 40 µg/mL [4]: > 2940 min
